Reference: US6391305B1, “Conjugates useful in the treatment of prostate cancer” (priority 1999, dated 2002)
Non-standard residues stand in square brackets, D forms with d. Residues, ends and D or L forms follow the SMILES beside them. *: point of attachment. Doxorubicin(3'-N) = COc1cccc2c1C(=O)c1c(O)c3c(c(O)c1C2=O)C[C@@](O)(C(=O)CO)C[C@@H]3O[C@H]1C[C@H](N*)[C@H](O)[C@H](C)O1; Dox = doxorubicin, linked through its 3'-amine to the C-terminal carbonyl; Decanoyl(3,6,9-trioxa) = COCCOCCOCC(=O)*; Glyceroyl(2S) = O=C([C@@H](O)CO)*; Glyceroyl(2R) = O=C([C@H](O)CO)*; hArg = N=C(N)NCCCC[C@H](N)C(=O)O; Chg = N[C@H](C(=O)O)C1CCCCC1; hSer = N[C@@H](CCO)C(=O)O; Glycolyl = O=C(CO)*; X3 = O=C(C(O)CO)*

What was measured:
[1] = target: T1, enzymatically active free PSA (Homo sapiens, UniProt P07288); experiment: Recognition (cleavage) of oligopeptide-doxorubicin conjugates by free PSA, HPLC; format: biochemical; conditions: DOX conjugate; for Time to 50% Substrate Cleavage by York PSA: PSA digestion buffer pH7.4, 140 mM NaCl, molar ratio to PSA 100 to 1
T1 construct: required for 50% cleavage of the noted oligopeptides with enzymatically active free PSA
Procedure: If no salt is indicated for the conjugate, the free conjugate was tested.

[2] = test system: LNCap prostate tumor cells; experiment: In vitro cytotoxicity, Alamar Blue assay, LNCaP; format: cell-based; conditions: 72 HRS, read-out: LNCaP Cell Kill in 72 HRS, {48 HRS} EC 50
Procedure: (§1) The cytotoxicities of the cleaveable oligopeptide-doxorubicin conjugates, prepared as described in Examples 3-6, against a line of cells which is known to be killed by unmodified doxorubicin was assessed with an Alamar Blue assay. Specifically, cell cultures of LNCap prostate tumor cells or DuPRO cells in 96 well plates was diluted with medium containing various concentrations of a given conjugate (final plate well volume of 200 μl ). The cells were incubated for 3 days at 37° C., 20 μl of Alamar Blue is added to the assay well. The cells were further incubated and the assay plates were read on a EL-310 ELISA reader at the dual wavelengths of 570 and 600 nm at 4 and 7 hours after addition of Alamar Blue. Relative percentage viability at the various concentration of conjugate tested was then calculated versus control (no conjugate) cultures. If no salt is indicated, the free conjugate was tested.

DuPRO cells = experiment: In vitro cytotoxicity, Alamar Blue assay, DuPRO; format: cell-based; conditions: value in parentheses beside the LNCaP value, read-out: DuPRO cell kill EC 50
Procedure: as §1

T1 sequence (P07288 25-261): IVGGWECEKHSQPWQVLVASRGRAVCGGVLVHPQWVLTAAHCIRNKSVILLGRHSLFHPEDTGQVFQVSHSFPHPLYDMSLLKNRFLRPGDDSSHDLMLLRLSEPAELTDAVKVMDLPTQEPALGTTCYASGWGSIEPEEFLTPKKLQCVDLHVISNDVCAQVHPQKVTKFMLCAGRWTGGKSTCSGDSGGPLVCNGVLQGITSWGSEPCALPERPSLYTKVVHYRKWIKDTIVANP

Compound	Time to 50% Substrate Cleavage by York PSA [1]	EC50 [2]	EC50 (DuPRO cells)	Substrate cleavage by York PSA at 3 HOUR ([1]; 3 hours)
COc1cccc2c1C(=O)c1c(O)c3c(c(O)c1C2=O)C[C@@](O)(C(=O)CO)C[C@@H]3O[C@H]1C[C@H](NC(=O)[C@H](CC(C)C)NC(=O)[C@H](CO)NC(=O)[C@H](CCC(N)=O)NC(=O)[C@@H](NC(=O)[C@H](CO)NC(=O)[C@H](CO)NC(=O)[C@H](CO)NC(=O)CO)C2CCCCC2)[C@H](O)[C@H](C)O1 [2-hydroxyacetyl-SSSChgQ-SL-DOX (3′), N-(2-Hydroxyacetyl)-Ser-Ser-Ser-Chg-Gln-Ser-Leu-Dox] (Glycolyl-SSS[Chg]QSL-{Doxorubicin(3'-N)})	25 min	7.2 µM	> 100 µM	–
COc1cccc2c1C(=O)c1c(O)c3c(c(O)c1C2=O)C[C@@](O)(C(=O)CO)C[C@@H]3O[C@H]1C[C@H](NC(=O)[C@H](CC(C)C)NC(=O)[C@H](CO)NC(=O)[C@H](CCC(N)=O)NC(=O)[C@@H](NC(=O)[C@H](CCCCNC(=N)N)NC(=O)[C@H](CO)NC(=O)CO)C2CCCCC2)[C@H](O)[C@H](C)O1 [2-hydroxyacetyl-SHomoRChgQ-SL-DOX (3′), 2-hydroxyacetyl-SerhArgChgGln-SerLeu-DOX (3′)] (Glycolyl-S[hArg][Chg]QSL-{Doxorubicin(3'-N)})	–	5.1 µM	> 100 µM	–
COCCOCCOCC(=O)N[C@@H](CO)C(=O)N[C@@H](CO)C(=O)N[C@H](C(=O)N[C@@H](CCC(N)=O)C(=O)N[C@@H](CO)C(=O)N[C@@H](CC(C)C)C(=O)N[C@H]1C[C@H](O[C@H]2C[C@](O)(C(=O)CO)Cc3c(O)c4c(c(O)c32)C(=O)c2c(OC)cccc2C4=O)O[C@@H](C)[C@H]1O)C1CCCCC1 [PEG(2)SSChgQ-SL-DOX (3′), PEG(2)SerSerChgGln-SerLeu-DOX (3′)] ({Decanoyl(3,6,9-trioxa)}-SS[Chg]QSL-{Doxorubicin(3'-N)})	90 min	8.8 µM	> 100 µM	–
COc1cccc2c1C(=O)c1c(O)c3c(c(O)c1C2=O)C[C@@](O)(C(=O)CO)C[C@@H]3O[C@H]1C[C@H](NC(=O)[C@H](CC(C)C)NC(=O)[C@H](CO)NC(=O)[C@H](CCC(N)=O)NC(=O)[C@@H](NC(=O)[C@H](CO)NC(=O)[C@H](CO)NC(=O)[C@H](CCCCNC(=N)N)NC(=O)CO)C2CCCCC2)[C@H](O)[C@H](C)O1 [2-hydroxyacetyl-HomoRSSChgQ-SL-DOX (3′), 2-hydroxyacetyl-hArgSerSerChgGln-SerLeu-DOX (3′)] (Glycolyl-[hArg]SS[Chg]QSL-{Doxorubicin(3'-N)})	–	5.5 µM	> 100 µM	–
N-[2-{2-(2-methoxyethoxy)ethoxy}acetyl]-Ser-Ser-Ser-Chg-Gln-Ser-Leu-Dox ({Decanoyl(3,6,9-trioxa)}-SSS[Chg]QSL-Dox) [PEG(2)-SSSChgQ-SL-DOX (3′)]	60 min	10 µM	> 100 µM	–
COc1cccc2c1C(=O)c1c(O)c3c(c(O)c1C2=O)C[C@@](O)(C(=O)CO)C[C@@H]3O[C@H]1C[C@H](NC(=O)[C@H](CC(C)C)NC(=O)[C@H](CO)NC(=O)[C@H](CCC(N)=O)NC(=O)[C@@H](NC(=O)[C@H](CO)NC(=O)[C@H](CO)NC(=O)[C@H](CCCCNC(=N)N)NC(=O)[C@H](O)CO)C2CCCCC2)[C@H](O)[C@H](C)O1 [(d)(2,3-dihydroxypropionyl)-hArgSerSerChgGln-SerLeu-DOX(3′)] ({Glyceroyl(2R)}-[hArg]SS[Chg]QSL-{Doxorubicin(3'-N)})	12 min	7.7 µM	> 100 µM	–
COc1cccc2c1C(=O)c1c(O)c3c(c(O)c1C2=O)C[C@@](O)(C(=O)CO)C[C@@H]3O[C@H]1C[C@H](NC(=O)[C@H](CC(C)C)NC(=O)[C@H](CO)NC(=O)[C@H](CCC(N)=O)NC(=O)[C@@H](NC(=O)[C@H](CO)NC(=O)[C@H](CO)NC(=O)[C@H](CO)NC(=O)[C@H](O)CO)C2CCCCC2)[C@H](O)[C@H](C)O1 [N-2(R)-2,3-dihydroxypropionyl-Ser-Ser-Ser-Chg-Gln-Ser-Leu-Dox] ({Glyceroyl(2R)}-SSS[Chg]QSL-{Doxorubicin(3'-N)})	55 min	5.8 µM	> 100 µM	–
COc1cccc2c1C(=O)c1c(O)c3c(c(O)c1C2=O)C[C@@](O)(C(=O)CO)C[C@@H]3O[C@H]1C[C@H](NC(=O)[C@H](CC(C)C)NC(=O)[C@H](CO)NC(=O)[C@H](CCC(N)=O)NC(=O)[C@@H](NC(=O)[C@H](CO)NC(=O)[C@H](CO)NC(=O)CO)C2CCCCC2)[C@H](O)[C@H](C)O1 [2-hydroxyacetyl-SSChgQ-SL-DOX (3′)] (Glycolyl-SS[Chg]QSL-{Doxorubicin(3'-N)})	45 min	4.8 µM	> 100 µM	–
COc1cccc2c1C(=O)c1c(O)c3c(c(O)c1C2=O)C[C@@](O)(C(=O)CO)C[C@@H]3O[C@H]1C[C@H](NC(=O)[C@H](CC(C)C)NC(=O)[C@H](CO)NC(=O)[C@H](CCC(N)=O)NC(=O)[C@@H](NC(=O)[C@H](CO)NC(=O)[C@H](CO)NC(=O)[C@H](CCCCNC(=N)N)NC(=O)[C@@H](O)CO)C2CCCCC2)[C@H](O)[C@H](C)O1 [(l)(2,3-dihydroxypropionyl)hArgSerSerChgGlnSerLeu-DOX (3′)] ({Glyceroyl(2S)}-[hArg]SS[Chg]QSL-{Doxorubicin(3'-N)})	12 min	7.5 µM	> 100 µM	–
COc1cccc2c1C(=O)c1c(O)c3c(c(O)c1C2=O)C[C@@](O)(C(=O)CO)C[C@@H]3O[C@H]1C[C@H](NC(=O)[C@H](CC(C)C)NC(=O)[C@H](CO)NC(=O)[C@H](CCC(N)=O)NC(=O)[C@@H](NC(=O)[C@H](CCCCNC(=N)N)NC(=O)[C@H](CO)NC(=O)[C@@H](O)CO)C2CCCCC2)[C@H](O)[C@H](C)O1 [(l) 2,3-dihydroxypropionyl-SerhArgChgGln-SerLeu-DOX (3′)] ({Glyceroyl(2S)}-S[hArg][Chg]QSL-{Doxorubicin(3'-N)})	15 min	9.4 µM	> 100 µM	–
COc1cccc2c1C(=O)c1c(O)c3c(c(O)c1C2=O)C[C@@](O)(C(=O)CO)C[C@@H]3O[C@H]1C[C@H](NC(=O)[C@H](CC(C)C)NC(=O)[C@H](CO)NC(=O)[C@H](CCC(N)=O)NC(=O)[C@@H](NC(=O)[C@H](CO)NC(=O)[C@H](CO)NC(=O)[C@H](CO)NC(=O)[C@@H](O)CO)C2CCCCC2)[C@H](O)[C@H](C)O1 [N-2(S)-2,3-dihydroxypropionyl-Ser-Ser-Ser-Chg-Gln-Ser-Leu-Dox] ({Glyceroyl(2S)}-SSS[Chg]QSL-{Doxorubicin(3'-N)})	25 min	5.5 µM	> 100 µM	–
COc1cccc2c1C(=O)c1c(O)c3c(c(O)c1C2=O)C[C@@](O)(C(=O)CO)C[C@@H]3O[C@H]1C[C@H](NC(=O)[C@H](CC(C)C)NC(=O)[C@H](CO)NC(=O)[C@H](CCC(N)=O)NC(=O)[C@@H](NC(=O)[C@H](CO)NC(=O)[C@H](CO)NC(=O)[C@H](CCO)NC(=O)C(O)CO)C2CCCCC2)[C@H](O)[C@H](C)O1 (stereo partly shown) [(2,3-dihydroxypropionyl)-hSerSerSerChgGln-SerLeu-DOX (3′)] (X3-[hSer]SS[Chg]QSL-{Doxorubicin(3'-N)})	35 min	5.1 µM	90 µM	–
COc1cccc2c1C(=O)c1c(O)c3c(c(O)c1C2=O)C[C@@](O)(C(=O)CO)C[C@@H]3O[C@H]1C[C@H](NC(=O)[C@H](CC(C)C)NC(=O)[C@H](CO)NC(=O)[C@H](CCC(N)=O)NC(=O)[C@@H](NC(=O)[C@H](CO)NC(=O)[C@H](CO)NC(=O)[C@H](O)CO)C2CCCCC2)[C@H](O)[C@H](C)O1 [(d)(2,3-dihydroxypropionyl)SerSerChgGln-SerLeu-DOX (3′)] ({Glyceroyl(2R)}-SS[Chg]QSL-{Doxorubicin(3'-N)})	120 min	9.1 µM	> 100 µM	–
COCCOCCOCC(=O)N[C@@H](CCCCNC(=N)N)C(=O)N[C@@H](CO)C(=O)N[C@@H](CO)C(=O)N[C@H](C(=O)N[C@@H](CCC(N)=O)C(=O)N[C@@H](CO)C(=O)N[C@@H](CC(C)C)C(=O)N[C@H]1C[C@H](O[C@H]2C[C@](O)(C(=O)CO)Cc3c(O)c4c(c(O)c32)C(=O)c2c(OC)cccc2C4=O)O[C@@H](C)[C@H]1O)C1CCCCC1 [PEG(2)-HomoRSSChgQ-SL-DOX (3′), PEG(2)-hArgSerSerChgGln-SerLeu-DOX (3′)] ({Decanoyl(3,6,9-trioxa)}-[hArg]SS[Chg]QSL-{Doxorubicin(3'-N)})	11 min	5.7 µM	> 100 µM	–
COc1cccc2c1C(=O)c1c(O)c3c(c(O)c1C2=O)C[C@@](O)(C(=O)CO)C[C@@H]3O[C@H]1C[C@H](NC(=O)[C@@H](CC(C)C)NC(=O)[C@H](CO)NC(=O)[C@H](CCC(N)=O)NC(=O)[C@@H](NC(=O)[C@H](CO)NC(=O)[C@H](CO)NC(=O)[C@@H](O)CO)C2CCCCC2)[C@H](O)[C@H](C)O1 [(l)(2,3-dihydroxypropionyl)SerSerChgGln-Ser(dLeu)-DOX (3′)] ({Glyceroyl(2S)}-SS[Chg]QS[dL]-{Doxorubicin(3'-N)})	–	> 100 µM	> 100 µM	22%
